# In ChEMBL document CHEMBL2440029, “Discovery and characterization of NVP-QAV680, a potent and selective CRTh2 receptor antagonist suitable for clinical testing in allergic diseases” (Bioorg Med Chem, 2013):
# Active and inactive are the calls of the source. No cut-off for these calls is given here.
# Tests used:
# [1] = target: T1, Prostaglandin D2 receptor 2 (Homo sapiens, UniProt Q9Y5Y4); assay: Displacement of [3H]-prostaglandin D2 from human CRTh2 receptor expressed in CHO cells after 2 hrs; assay type: cell-based
# T1 sequence (Q9Y5Y4 whole entry): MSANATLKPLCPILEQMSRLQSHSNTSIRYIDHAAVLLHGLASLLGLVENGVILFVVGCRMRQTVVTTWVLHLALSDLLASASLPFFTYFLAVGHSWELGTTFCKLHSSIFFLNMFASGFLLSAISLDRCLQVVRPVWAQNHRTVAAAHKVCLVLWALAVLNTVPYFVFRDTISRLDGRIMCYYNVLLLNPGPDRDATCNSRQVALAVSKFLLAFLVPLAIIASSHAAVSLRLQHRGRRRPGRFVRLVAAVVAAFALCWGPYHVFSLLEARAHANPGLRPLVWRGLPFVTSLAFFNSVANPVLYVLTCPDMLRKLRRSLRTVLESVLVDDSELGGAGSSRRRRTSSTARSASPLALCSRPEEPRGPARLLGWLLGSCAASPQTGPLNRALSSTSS
# [2] = target: T2, Prostaglandin G/H synthase 2 (Homo sapiens) (UniProt P35354); assay: Inhibition of human COX2 at 10 uM
# T2 sequence (whole entry): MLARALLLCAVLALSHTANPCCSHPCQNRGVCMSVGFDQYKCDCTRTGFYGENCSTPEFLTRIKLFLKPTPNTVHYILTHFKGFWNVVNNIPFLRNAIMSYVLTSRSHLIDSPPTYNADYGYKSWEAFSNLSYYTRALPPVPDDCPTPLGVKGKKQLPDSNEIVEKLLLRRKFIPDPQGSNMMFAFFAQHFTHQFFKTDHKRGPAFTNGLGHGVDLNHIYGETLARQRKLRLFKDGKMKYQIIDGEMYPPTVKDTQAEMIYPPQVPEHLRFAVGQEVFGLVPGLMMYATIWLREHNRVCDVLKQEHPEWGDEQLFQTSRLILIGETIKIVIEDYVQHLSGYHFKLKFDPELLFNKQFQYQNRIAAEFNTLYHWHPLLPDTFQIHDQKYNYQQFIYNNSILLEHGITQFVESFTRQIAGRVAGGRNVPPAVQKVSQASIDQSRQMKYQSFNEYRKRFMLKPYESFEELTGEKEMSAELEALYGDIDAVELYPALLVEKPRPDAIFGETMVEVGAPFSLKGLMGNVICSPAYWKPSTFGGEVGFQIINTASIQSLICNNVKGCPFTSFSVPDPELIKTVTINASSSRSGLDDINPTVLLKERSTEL
# [3] = target: Prostaglandin G/H synthase 1 (Homo sapiens) (UniProt P23219); assay: Inhibition of human COX1 at 10 uM
# [4] = target: T3, Prostaglandin D2 receptor 2 (Homo sapiens) (UniProt Q9Y5Y4); assay: Antagonist activity at human CRTh2 receptor expressed in CHO cells assessed as inhibition of prostaglandin D2 and forskolin-induced cAMP accumulation after 45 mins in presence of 0.1% HSA; assay type: functional, cell-based
# T3 sequence (whole entry): T1 sequence (Q9Y5Y4 whole entry)
# [5] = target: T1, Prostaglandin D2 receptor 2; assay: Antagonist activity at human CRTh2 receptor expressed in CHO cells assessed as inhibition of prostaglandin D2 and forskolin-induced cAMP accumulation after 45 mins; assay type: functional, cell-based
# [6] = target: Cysteinyl leukotriene receptor 2 (Homo sapiens) (UniProt Q9NS75); assay: Inhibition of CysLT2 receptor (unknown origin) at 10 uM
# [7] = system: Rattus norvegicus; assay: Inhibition of eosinophil recruitment in bronchoalveolar lavage in po dosed Sprague-Dawley rat allergic disease model; assay type: functional, organism-based; settings: Lung
# [8] = Solubility of the compound at pH 6.8; assay type: physicochemical; settings: buffer
# [9] = target: Prostaglandin E2 receptor EP3 subtype (Homo sapiens, UniProt P43115); assay: Inhibition of prostanoid EP3 receptor (unknown origin)
# [10] = Inhibition of DK-PGD2-induced IL-13 production in human CD4+ Th2 cells after 6 to 8 hrs; assay type: functional, cell-based
# [11] = Cmax in Wistar rat at 3 mg/kg, po; assay type: ADME, organism-based; design: dose 3 mg/kg, route oral; settings: in vivo
# [12] = target: Polyunsaturated fatty acid 5-lipoxygenase (Homo sapiens) (UniProt P09917); assay: Inhibition of human 5-lipoxygenase at 10 uM
# [13] = system: Mus musculus; assay: Inhibition of FITC hapten-induced ear edema in po dosed Balb/cJBomTac mouse allergic contact dermatitis model after 24 hrs; assay type: functional
# [14] = target: Prostaglandin E2 receptor EP2 subtype (Homo sapiens, UniProt P43116); assay: Inhibition of prostanoid EP2 receptor (unknown origin)
# [15] = Oral bioavailability in Wistar rat at 100 mg/kg; assay type: ADME, organism-based; settings: in vivo
# [16] = target: Cytochrome P450 2C9 (Homo sapiens, UniProt P11712); assay: Inhibition of human CYP2C9; assay type: ADME
# [17] = Fraction unbound in Sprague-Dawley rat plasma at 0.1 to 0.3 mg/kg, po; assay type: ADME, organism-based; design: dose 0.1-0.3 mg/kg, route oral
# [18] = Cmax in Wistar rat at 100 mg/kg, po; assay type: ADME, organism-based; design: dose 100 mg/kg, route oral; settings: in vivo
# [19] = Terminal half life in Wistar rat at 0.5 mg/kg, iv; assay type: ADME, organism-based; design: dose 0.5 mg/kg, route intravenous; settings: in vivo, read-out: beta t1/2 (converted)
# [20] = Apparent permeability from basolateral to apical side in human Caco2 cells; assay type: ADME, cell-based; settings: Caco-2
# [21] = Oral bioavailability in Wistar rat at 3 mg/kg; assay type: ADME, organism-based; settings: in vivo
# [22] = Tmax in Wistar rat at 3 mg/kg, po; assay type: ADME, organism-based; design: dose 3 mg/kg, route oral; settings: in vivo
# [23] = Inhibition of DK-PGD2-induced IL-5 production in human CD4+ Th2 cells after 6 to 8 hrs; assay type: functional, cell-based
# [24] = AUC (0 to 48 hrs) in Wistar rat at 3 mg/kg, po; assay type: ADME, organism-based; design: time < 48 hr, dose 3 mg/kg, route oral; settings: plasma
# [25] = Volume of distribution at steady state in Wistar rat at 0.5 mg/kg, iv; assay type: ADME, organism-based; design: dose 0.5 mg/kg, route intravenous; settings: in vivo, read-out: Vdss
# [26] = system: Rattus norvegicus; assay: Inhibition of eosinophil recruitment in bronchoalveolar lavage in Sprague-Dawley rat allergic disease model at 1 mg/kg, po; assay type: functional, organism-based; design: dose 1 mg/kg; settings: Lung
# [27] = Apparent permeability from apical to basolateral side in human Caco2 cells; assay type: ADME, cell-based; settings: Caco-2
# [28] = target: Thromboxane A2 receptor (Homo sapiens, UniProt P21731); assay: Inhibition of prostanoid TP receptor (unknown origin)
# [29] = target: T4, Prostaglandin D2 receptor 2 (Mus musculus, UniProt Q9Z2J6); assay: Displacement of [3H]-prostaglandin D2 from mouse CRTh2 receptor expressed in CHO cells after 2 hrs; assay type: cell-based
# [30] = target: Leukotriene B4 receptor 1 (Homo sapiens) (UniProt Q15722); assay: Inhibition of LTB4 receptor (unknown origin) at 10 uM
# [31] = target: T4, Prostaglandin D2 receptor 2; assay: Antagonist activity at mouse CRTh2 receptor expressed in CHO-K1 cells assessed as inhibition of […]-GTP-gamma-S binding after 50 mins by liquid scintillation counting; assay type: functional, cell-based
# [32] = AUC (0 to 48 hrs) in Wistar rat at 100 mg/kg, po; assay type: ADME, organism-based; design: time < 48 hr, dose 100 mg/kg, route oral; settings: plasma
# [33] = Cmax in Balb/c mouse at 5 mg/kg, po; assay type: ADME, organism-based; design: dose 5 mg/kg, route oral; settings: in vivo
# [34] = target: Cytochrome P450 1A2 (Homo sapiens, UniProt P05177); assay: Inhibition of human CYP1A2; assay type: ADME
# [35] = Clearance in Wistar rat at 0.5 mg/kg, iv; assay type: ADME, organism-based; design: dose 0.5 mg/kg, route intravenous; settings: in vivo
# [36] = target: Prostaglandin F2-alpha receptor (Homo sapiens, UniProt P43088); assay: Inhibition of prostanoid FP receptor (unknown origin)
# [37] = target: Cysteinyl leukotriene receptor 1 (Homo sapiens) (UniProt Q9Y271); assay: Inhibition of CysLT1 receptor (unknown origin) at 10 uM
# [38] = target: Prostacyclin receptor (Homo sapiens, UniProt P43119); assay: Inhibition of prostanoid IP receptor (unknown origin)
# [39] = target: Cytochrome P450 2D6 (Homo sapiens, UniProt P10635); assay: Inhibition of human CYP2D6; assay type: ADME
# [40] = target: Cytochrome P450 3A4 (Homo sapiens, UniProt P08684); assay: Inhibition of human CYP3A4; assay type: ADME
# [41] = target: Prostaglandin E2 receptor EP4 subtype (Homo sapiens, UniProt P35408); assay: Inhibition of prostanoid EP4 receptor (unknown origin)
# [42] = target: Prostaglandin D2 receptor (Homo sapiens, UniProt Q13258); assay: Inhibition of prostanoid DP1 receptor (unknown origin)
# [43] = Tmax in Wistar rat at 100 mg/kg, po; assay type: ADME, organism-based; design: dose 100 mg/kg, route oral; settings: in vivo
# [44] = Antagonist activity at CRTh2 receptor in human isolated eosinophil assessed as inhibition of DK-PGD2-induced shape change after 5 mins by flow cytometry
# Sequence of Prostaglandin G/H synthase 1 (Homo sapiens) (P23219 whole entry): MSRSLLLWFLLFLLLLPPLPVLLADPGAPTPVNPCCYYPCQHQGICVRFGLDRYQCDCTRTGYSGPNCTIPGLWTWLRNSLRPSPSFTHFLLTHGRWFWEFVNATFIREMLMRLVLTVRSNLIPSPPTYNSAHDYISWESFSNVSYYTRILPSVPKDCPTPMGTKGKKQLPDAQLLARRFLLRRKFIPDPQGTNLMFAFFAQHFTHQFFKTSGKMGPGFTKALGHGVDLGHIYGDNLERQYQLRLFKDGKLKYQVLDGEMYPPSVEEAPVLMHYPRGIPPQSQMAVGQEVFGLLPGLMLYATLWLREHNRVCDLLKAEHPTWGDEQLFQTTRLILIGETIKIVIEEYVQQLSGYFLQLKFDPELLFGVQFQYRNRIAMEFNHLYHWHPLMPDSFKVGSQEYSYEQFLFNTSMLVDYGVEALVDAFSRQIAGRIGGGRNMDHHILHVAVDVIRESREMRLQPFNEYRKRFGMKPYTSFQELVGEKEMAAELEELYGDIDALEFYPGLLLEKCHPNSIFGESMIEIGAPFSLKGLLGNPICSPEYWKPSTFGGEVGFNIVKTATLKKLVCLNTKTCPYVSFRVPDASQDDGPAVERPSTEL
# T4 sequence (Q9Z2J6 whole entry): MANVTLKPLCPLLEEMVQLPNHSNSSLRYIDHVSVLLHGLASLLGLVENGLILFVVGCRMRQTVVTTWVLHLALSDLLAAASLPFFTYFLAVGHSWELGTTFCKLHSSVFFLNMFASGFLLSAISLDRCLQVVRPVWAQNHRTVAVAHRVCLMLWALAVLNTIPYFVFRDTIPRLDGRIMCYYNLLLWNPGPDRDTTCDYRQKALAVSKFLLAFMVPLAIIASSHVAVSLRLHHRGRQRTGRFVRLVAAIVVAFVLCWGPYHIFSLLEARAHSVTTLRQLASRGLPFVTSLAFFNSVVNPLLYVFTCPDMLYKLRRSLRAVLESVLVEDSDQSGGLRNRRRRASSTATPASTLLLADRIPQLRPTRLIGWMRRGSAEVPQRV
# Sequence of Thromboxane A2 receptor (P21731 whole entry): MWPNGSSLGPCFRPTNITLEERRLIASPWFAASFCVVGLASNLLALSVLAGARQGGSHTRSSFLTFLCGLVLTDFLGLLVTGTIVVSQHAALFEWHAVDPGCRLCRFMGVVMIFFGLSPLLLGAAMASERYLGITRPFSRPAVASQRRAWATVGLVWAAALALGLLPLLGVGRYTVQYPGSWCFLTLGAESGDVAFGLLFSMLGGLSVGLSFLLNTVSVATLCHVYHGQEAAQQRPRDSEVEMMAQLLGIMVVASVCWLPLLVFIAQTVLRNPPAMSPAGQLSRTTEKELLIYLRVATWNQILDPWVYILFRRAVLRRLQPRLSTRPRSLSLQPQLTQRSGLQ
# Sequence of Cytochrome P450 2C9 (P11712 whole entry): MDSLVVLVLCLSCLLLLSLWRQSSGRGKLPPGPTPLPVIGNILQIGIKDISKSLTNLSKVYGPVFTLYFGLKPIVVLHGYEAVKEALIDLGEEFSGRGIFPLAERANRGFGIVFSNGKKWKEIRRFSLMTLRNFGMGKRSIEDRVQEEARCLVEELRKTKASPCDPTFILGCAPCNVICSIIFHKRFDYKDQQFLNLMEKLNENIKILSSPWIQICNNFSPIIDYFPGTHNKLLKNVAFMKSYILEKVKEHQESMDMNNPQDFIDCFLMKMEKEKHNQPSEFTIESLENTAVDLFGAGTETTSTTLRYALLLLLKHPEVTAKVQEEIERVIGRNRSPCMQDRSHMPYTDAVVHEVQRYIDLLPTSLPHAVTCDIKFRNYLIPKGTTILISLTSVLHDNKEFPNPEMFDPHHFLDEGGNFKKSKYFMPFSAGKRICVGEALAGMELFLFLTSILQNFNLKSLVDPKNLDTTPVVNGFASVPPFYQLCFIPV
# Sequence of Prostacyclin receptor (P43119 whole entry): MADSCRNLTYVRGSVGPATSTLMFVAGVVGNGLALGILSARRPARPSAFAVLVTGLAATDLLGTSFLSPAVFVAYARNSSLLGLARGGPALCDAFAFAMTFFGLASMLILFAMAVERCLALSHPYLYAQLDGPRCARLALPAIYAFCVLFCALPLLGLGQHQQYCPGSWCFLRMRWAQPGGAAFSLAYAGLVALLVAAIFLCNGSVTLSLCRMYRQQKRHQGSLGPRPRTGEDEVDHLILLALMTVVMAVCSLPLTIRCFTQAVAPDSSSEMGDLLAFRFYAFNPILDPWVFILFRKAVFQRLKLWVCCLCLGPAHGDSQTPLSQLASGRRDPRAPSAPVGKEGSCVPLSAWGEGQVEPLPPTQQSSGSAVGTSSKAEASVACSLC
# Sequence of Cysteinyl leukotriene receptor 2 (Homo sapiens) (Q9NS75 whole entry): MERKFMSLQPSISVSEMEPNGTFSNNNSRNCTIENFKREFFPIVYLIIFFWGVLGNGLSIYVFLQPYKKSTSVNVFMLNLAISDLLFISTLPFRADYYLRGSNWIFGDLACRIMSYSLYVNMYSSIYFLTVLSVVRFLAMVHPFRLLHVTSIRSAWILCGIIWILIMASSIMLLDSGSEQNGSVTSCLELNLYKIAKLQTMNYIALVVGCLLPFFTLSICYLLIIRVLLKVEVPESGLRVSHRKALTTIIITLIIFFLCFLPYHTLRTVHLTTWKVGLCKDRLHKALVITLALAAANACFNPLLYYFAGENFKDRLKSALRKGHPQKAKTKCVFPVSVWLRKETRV
# Sequence of Polyunsaturated fatty acid 5-lipoxygenase (Homo sapiens) (P09917 whole entry): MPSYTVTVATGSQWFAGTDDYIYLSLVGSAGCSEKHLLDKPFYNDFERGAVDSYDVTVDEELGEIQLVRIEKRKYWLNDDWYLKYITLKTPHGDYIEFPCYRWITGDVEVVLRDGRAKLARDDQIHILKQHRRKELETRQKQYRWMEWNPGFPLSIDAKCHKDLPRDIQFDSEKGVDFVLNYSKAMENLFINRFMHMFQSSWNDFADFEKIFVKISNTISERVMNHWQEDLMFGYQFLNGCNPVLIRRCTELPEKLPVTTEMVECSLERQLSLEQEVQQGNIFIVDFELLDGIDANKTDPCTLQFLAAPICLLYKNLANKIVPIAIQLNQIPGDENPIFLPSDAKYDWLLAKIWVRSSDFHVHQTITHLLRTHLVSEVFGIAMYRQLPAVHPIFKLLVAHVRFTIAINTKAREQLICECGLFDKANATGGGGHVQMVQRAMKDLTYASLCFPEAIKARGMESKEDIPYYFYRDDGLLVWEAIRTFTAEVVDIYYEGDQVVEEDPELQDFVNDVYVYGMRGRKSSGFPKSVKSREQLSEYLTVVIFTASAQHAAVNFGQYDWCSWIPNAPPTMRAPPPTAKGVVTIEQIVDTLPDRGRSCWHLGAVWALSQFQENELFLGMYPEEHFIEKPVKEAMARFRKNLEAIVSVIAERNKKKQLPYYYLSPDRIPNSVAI
# Sequence of Prostaglandin E2 receptor EP2 subtype (P43116 whole entry): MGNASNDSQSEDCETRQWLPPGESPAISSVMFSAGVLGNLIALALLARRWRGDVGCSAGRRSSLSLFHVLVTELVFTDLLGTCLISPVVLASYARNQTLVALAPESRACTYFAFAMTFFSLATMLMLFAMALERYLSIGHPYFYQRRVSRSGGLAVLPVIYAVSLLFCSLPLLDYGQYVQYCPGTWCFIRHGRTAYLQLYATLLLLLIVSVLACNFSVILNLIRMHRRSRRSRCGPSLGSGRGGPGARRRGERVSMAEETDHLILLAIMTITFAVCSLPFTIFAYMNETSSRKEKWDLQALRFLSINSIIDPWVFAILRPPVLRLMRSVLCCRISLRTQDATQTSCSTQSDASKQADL
# Sequence of Prostaglandin F2-alpha receptor (P43088 whole entry): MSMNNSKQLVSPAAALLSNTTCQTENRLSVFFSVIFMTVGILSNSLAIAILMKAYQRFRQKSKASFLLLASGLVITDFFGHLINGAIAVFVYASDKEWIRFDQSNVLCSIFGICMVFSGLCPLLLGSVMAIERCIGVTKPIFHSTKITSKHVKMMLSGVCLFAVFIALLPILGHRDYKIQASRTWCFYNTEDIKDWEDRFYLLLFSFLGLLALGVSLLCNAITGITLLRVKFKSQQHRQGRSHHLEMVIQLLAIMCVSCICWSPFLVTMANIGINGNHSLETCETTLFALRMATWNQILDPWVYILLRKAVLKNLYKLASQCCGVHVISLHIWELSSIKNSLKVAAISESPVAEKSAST
# Sequence of Prostaglandin E2 receptor EP4 subtype (P35408 whole entry): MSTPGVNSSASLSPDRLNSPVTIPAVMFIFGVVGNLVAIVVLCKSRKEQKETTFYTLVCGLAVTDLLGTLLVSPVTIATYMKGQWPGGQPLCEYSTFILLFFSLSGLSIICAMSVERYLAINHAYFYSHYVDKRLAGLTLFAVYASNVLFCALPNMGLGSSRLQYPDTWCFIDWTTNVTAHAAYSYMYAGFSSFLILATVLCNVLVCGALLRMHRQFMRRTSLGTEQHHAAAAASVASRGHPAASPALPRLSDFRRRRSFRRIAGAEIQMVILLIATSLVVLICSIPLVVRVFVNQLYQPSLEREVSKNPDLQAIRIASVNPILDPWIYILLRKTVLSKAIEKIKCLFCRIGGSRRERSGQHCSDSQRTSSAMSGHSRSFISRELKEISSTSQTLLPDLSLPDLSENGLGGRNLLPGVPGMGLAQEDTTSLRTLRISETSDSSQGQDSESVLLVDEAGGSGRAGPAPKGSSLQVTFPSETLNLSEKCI
# Sequence of Cytochrome P450 3A4 (P08684 whole entry): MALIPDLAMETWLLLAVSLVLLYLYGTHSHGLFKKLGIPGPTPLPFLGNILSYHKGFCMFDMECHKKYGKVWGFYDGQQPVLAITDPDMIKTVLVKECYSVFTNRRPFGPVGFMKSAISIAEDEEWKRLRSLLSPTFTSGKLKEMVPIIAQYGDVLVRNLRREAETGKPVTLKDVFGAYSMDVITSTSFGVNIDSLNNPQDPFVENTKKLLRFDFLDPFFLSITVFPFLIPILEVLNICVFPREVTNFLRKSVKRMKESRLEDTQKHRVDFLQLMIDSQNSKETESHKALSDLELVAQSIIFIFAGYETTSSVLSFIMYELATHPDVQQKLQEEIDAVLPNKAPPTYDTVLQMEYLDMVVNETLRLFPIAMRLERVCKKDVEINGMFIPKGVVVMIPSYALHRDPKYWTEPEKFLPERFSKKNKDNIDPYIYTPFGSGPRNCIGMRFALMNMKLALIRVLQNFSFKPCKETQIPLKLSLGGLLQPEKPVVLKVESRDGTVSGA
compound,measurement,setting,value
Cc1c(CC(=O)O)c2cccnc2n1Cc1ccccn1,Ki,[1],2.94 µM
Cc1c(CC(=O)O)c2cccnc2n1Cc1ccc(Cl)cc1,inhibition,[2],inactive
same,inhibition,[3],inactive
same,fold change (FC),[4],4.1
same,IC50,[5],0.484 µM
same,Ki,[1],0.149 µM
Cc1c(CC(=O)O)c2cccnc2n1Cc1ccc(S(=O)(=O)C(F)(F)F)cc1,fold change (FC),[4],0.9
same,IC50,[5],0.147 µM
same,Ki,[1],0.208 µM
Cc1c(CC(=O)O)c2cccnc2n1Cc1ccc(S(C)(=O)=O)cc1 [QAV680],inhibition,[2],inactive
same,inhibition,[6],inactive
same,Activity,[7],Dose-dependent effect
same,solubility,[8],5200 µg/mL
same,inhibition,[3],inactive
same,IC50,[9],> 10 µM
same,IC50,[10],0.025 µM
same,Cmax,[11],2.6 µM
same,inhibition,[12],inactive
same,inhibition,[13],Dose-dependent effect
same,minimal effective dose,[13]; read-out: MED,10 mg/kg
same,IC50,[14],> 10 µM
same,fold change (FC),[4],3.1
same,bioavailability,[15],35%
same,IC50,[16],> 100 µM
same,fraction unbound,[17],0.34
same,Cmax,[18],42.7 µM
same,IC50,[5],0.037 µM
same,half-life,[19],1030 min
same,Ki,[1],0.036 µM
same,Papp B→A,[20],2.2 ×10⁻⁶ cm/s
same,bioavailability,[21],54%
same,Tmax,[22],39.6 min
same,IC50,[23],0.059 µM
same,AUC(0-t) at 48 h,[24],6.06 µM·h
same,Vd,[25],5.5 L/kg
same,Activity,[26],Active
same,Papp A→B,[27],0.9 ×10⁻⁶ cm/s
same,IC50,[28],> 10 µM
same,Ki,[29],0.01 µM
same,inhibition,[30],inactive
same,IC50,[31],0.094 µM
same,AUC(0-t) at 48 h,[32],128 µM·h
same,Cmax,[33],7.6 µM
same,IC50,[34],> 100 µM
same,clearance,[35],15.2 mL/min/kg
same,IC50,[36],> 10 µM
same,inhibition,[37],inactive
same,IC50,[38],> 10 µM
same,IC50,[39],> 100 µM
same,IC50,[40],> 100 µM
same,IC50,[41],> 10 µM
same,IC50,[42],> 10 µM
same,Tmax,[43],39.6 min
Cc1c(CC(=O)O)c2cccnc2n1Cc1ccncc1,Ki,[1],2.23 µM
Cc1c(CC(=O)O)c2cccnc2n1Cc1ccccc1Cl,Ki,[1],0.624 µM
Cc1c(CC(=O)O)c2cccnc2n1Cc1ccc([N+](=O)[O-])cc1,fold change (FC),[4],4.1
Cc1c(CC(=O)O)c2cccnc2n1Cc1cccnc1,Ki,[1],1.06 µM
Cc1c(CC(=O)O)c2cccnc2n1Cc1ccc(C#N)cc1,fold change (FC),[4],3.6
same,IC50,[5],0.554 µM
same,Ki,[1],0.379 µM
Cc1c(CC(=O)O)c2cccnc2n1Cc1ccc([S+](C)[O-])cc1 (racemic),fold change (FC),[4],3.1
same,IC50,[5],0.233 µM
same,Ki,[1],0.249 µM
Cc1c(CC(=O)O)c2cccnc2n1S(=O)(=O)c1ccc(F)c(F)c1,fold change (FC),[4],1.3
Cc1c(CC(=O)O)c2cccnc2n1S(=O)(=O)c1ccc(Cl)cc1,inhibition,[2],inactive
same,inhibition,[3],inactive
same,fold change (FC),[4],3.8
same,IC50,[5],0.565 µM
same,IC50,[44],0.108 µM
